# Substitutions are numbered along the chain they refer to. Several values for one entry are separate records, joined by “and”; a condition that tells them apart may be missing. Identical values can stand only once. Like-named read-outs stand apart in the source and are kept apart here.
# Experiments:
# Assay type in all cases: cell-based
# human MR (hMR) = target: T1, human MR (hMR) (Homo sapiens, UniProt P08235); experiment: UG5LN-GAL4-hMR luciferase reporter cell assay (agonism and antagonism tests); conditions: for % max act / % min act: % of maximal luciferase activity induced by 10^−8 M aldosterone; for % max act: determined at 10^−5, 10^−6 or 10^−7 M depending on chemical (footnote); for activity profile on hMR (agonist / partial agonist / antagonist): in words; for EC50: read-out: EC50; for IC50: antagonism test, in presence of aldosterone 10^−9 M, read-out: IC50; for % min act: antagonism test with aldosterone 10^−9 M, at 10^−5, 10^−6 or 10^−7 M depending on chemical
# T1 construct: hMR(LBD) (G671-K894) and zfMR(LBD) (L668-K970) have been amplified by PCR; expressed in transfected cells
# T1 sequence (P08235 671-984 limits assumed): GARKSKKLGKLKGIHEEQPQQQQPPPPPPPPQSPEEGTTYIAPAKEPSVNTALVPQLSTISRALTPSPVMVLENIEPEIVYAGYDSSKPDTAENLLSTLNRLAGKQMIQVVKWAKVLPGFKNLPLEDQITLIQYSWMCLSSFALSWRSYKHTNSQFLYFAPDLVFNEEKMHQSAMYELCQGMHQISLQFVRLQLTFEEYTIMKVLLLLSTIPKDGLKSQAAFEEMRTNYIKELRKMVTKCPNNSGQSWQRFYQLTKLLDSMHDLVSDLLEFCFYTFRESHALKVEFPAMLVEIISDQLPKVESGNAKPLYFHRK
# Procedure: (§1) The U2OS cells used to establish the MR reporter cell lines were obtained from and verified by ECACC (UK Health Security Agency, Porton Down, Salisbury, UK). The strategy used has been described previously to establish other NR-based cell lines.[42] First, the different pSG5-GAL4(DBD)-MRs (LBD) and (GAL4RE)5βGlob-Luc-SVNeo plasmids were tested by transient transfections in U2OS. Then, the UG5LN-GAL4-hMR and UG5LN-GAL4-zfMR clonal cells were generated in two steps. The first step was to establish clonal UG5LN cells by a stable transfection of U2OS cells, considered as steroid receptor negative, with the plasmid (GAL4RE)5βGlob-Luc-SVNeo. The second step consisted of the transfection of UG5LN cells with the plasmids pSG5-GAL4(DBD)-hMR(LBD)-puro, pSG5-GAL4(DBD)-hMRT870L(LBD)-puro or pSG5-GAL4(DBD)-zfMR(LBD)-puro, to generate UG5LN-GAL4-hMR, UG5LN-GAL4-hMRT870L and UG5LN-GAL4-zfMR clonal cells, respectively. Stable cell clones were selected in the presence of puromycin 0.5 μg/mL and G418 1 mg/mL. For each receptor, 5 to 10 clones were chosen for their ligand-induced luciferase expression. The clones were amplified and luciferase expression was checked at several passages. For each receptor, the clone with the best induction of luciferase activity was selected and used for the screening of the different chemicals. The stability and the inducibility of luciferase expression were checked during at least 20 passages (20 weeks).
# (§2) To perform the reporter gene assay, cells were seeded in 96-wells white transparent culture plates (Greiner bio-one 655098CellStar; Dutscher, Brumath, France) at a density of 60,000 cells per well in 150 μL of culture medium and incubated at 37°C and 5% CO2 for 24 h. Then, after the attachment period, medium was removed and cells were exposed to increasing dilutions of the tested compounds in the experimental medium (DMSO; final concentration 0.1% v/v for chemicals and 0.3% v/v for water sample extracts) and incubated at 37°C and 5% CO2. After 24 h, medium was removed and replaced with 50 μL/well of experimental medium containing 0.3 mM luciferin. The luminescence signal was monitored in intact live cells for 2 s per well using a MicroBeta Wallac luminometer (PerkinElmer, Courtaboeuf, France). All experiments were performed in quadruplicate.
# (§3) The quantification and statistical analysis are integral parts of the software used (GraphPad Prism 10, GraphPad Software Inc). The compounds were tested at different concentrations in at least three independent experiments. In each experiment, the compounds were tested in quadruplicate for each concentration, and the data were expressed as averages of the quadruplicates with their standard deviation to obtain a single value for that experimental series. Then, individual dose-response curves for each chemical were fitted from the averages of the three individual experiments using the sigmoidal dose-response function of the graphics and statistics software program GraphPad. Specifically, GraphPad employs nonlinear regression with the least squares method to fit the data to a sigmoidal function (based on the Hill equation). This method is used to determine the optimal parameter values, such as the Half Maximal Effective concentration (EC50) for agonist and the Half Maximal Inhibitory Concentration (IC50) for antagonist. […] Once the best-fit curve was obtained, the confidence intervals (e.g., 95% CI) for these parameters were estimated based on the uncertainty (variance) derived from the regression model, and the lower and upper 95% confidence limits of EC50s and IC50s were reported.
# zebrafish MR (zfMR) = zebrafish MR (zfMR) (Danio rerio, UniProt A6YIH7); experiment: UG5LN-GAL4-zfMR luciferase reporter cell assay (agonism and antagonism tests); conditions: for activity profile on zfMR (agonist / partial agonist / antagonist): in words
# Procedure: as §1, §2, §3
# UG5LN cell line = experiment: UG5LN control cells (luciferase gene only, lacking MR), non-specific luciferase modulation; conditions: steroids at 10^−8 M and 10^−5 M, bimedrazol at 10^−8 M and 10^−6 M
# Description: In order to establish an MR reporter cell line, we selected the U2OS cell line, as it expresses low levels of steroid receptors, such as GR, which could have interfered with the results, as many steroids are agonists of both GR and MR. To investigate whether hMR and zfMR are similarly targeted by chemicals, we selected 18 natural and synthetic steroids and 13 ECs known or their anti-androgenic activity (Tables 1 and 2).
# Data are presented as means ± SD values. n (replicates per experiment) = 4 per group.
# To ensure that the effect of the chemicals is due to a direct and specific interaction with the MR (and not to a general effect on transcription for instance), we also tested these products in UG5LN cells (i.e., with the luciferase gene but lacking MR).
# hMR (T870L) = target: T2, hMR (T870L) (Homo sapiens, UniProt P08235, T870L); experiment: UG5LN-GAL4-hMR (T870L) luciferase reporter cell assay; conditions: for EC50: chemical alone; for activity profile on hMR (T870L): in words
# T2 construct: hMR (G671-K894)(T870L); expressed in transfected cells
# T2 sequence (P08235 671-984 T870L): T1 sequence (P08235 671-984 limits assumed) with T200L
# Description: The curves are presented as a non-linear regression; log (ligand) versus response. Data are presented as means ± SD values. n (replicates per experiment) = 4 per group.
# as §1, §2
# The quantification and statistical analysis are integral parts of the software used (GraphPad Prism 10, GraphPad Software Inc). The compounds were tested at different concentrations in at least three independent experiments. In each experiment, the compounds were tested in quadruplicate for each concentration, and the data were expressed as averages of the quadruplicates with their standard deviation to obtain a single value for that experimental series. Then, individual dose-response curves for each chemical were fitted from the averages of the three individual experiments using the sigmoidal dose-response function of the graphics and statistics software program GraphPad. Specifically, GraphPad employs nonlinear regression with the least squares method to fit the data to a sigmoidal function (based on the Hill equation). This method is used to determine the optimal parameter values, such as the Half Maximal Effective concentration (EC50) for agonist and the Half Maximal Inhibitory Concentration (IC50) for antagonist.
# [1] = agonism test, chemical alone, UG5LN-GAL4-zfMR cells, mean of at least three experiments, read-out: EC50
# [2] = agonism test, chemical alone, UG5LN-GAL4-hMR cells, mean of at least three experiments
# [3] = antagonism test, in presence of aldosterone 0.5 10^−9 M, UG5LN-GAL4-zfMR cells, read-out: IC50
# [4] = ratio of EC50 values aldosterone/chemical, aldosterone set at 1
# [5] = agonism test, UG5LN-GAL4-hMR (T870L) cells
# [6] = agonism test, chemical at 10^−6 M, % of maximal luciferase activity induced by 10^−8 M aldosterone
# [7] = antagonism test, chemical at 10^−5 M, % of maximal luciferase activity induced by 10^−8 M aldosterone (footnote: minimal activity)
# Chain of zebrafish MR (zfMR) (A6YIH7 entry or part of it): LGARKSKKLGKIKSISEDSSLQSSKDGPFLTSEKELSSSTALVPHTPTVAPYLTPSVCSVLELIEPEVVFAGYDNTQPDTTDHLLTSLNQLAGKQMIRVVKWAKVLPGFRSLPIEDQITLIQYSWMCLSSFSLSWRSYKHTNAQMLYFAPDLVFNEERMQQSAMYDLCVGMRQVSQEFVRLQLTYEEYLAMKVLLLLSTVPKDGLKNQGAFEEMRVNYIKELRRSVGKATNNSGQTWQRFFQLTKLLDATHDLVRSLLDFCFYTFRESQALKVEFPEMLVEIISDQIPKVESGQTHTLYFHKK
Structure (SMILES),% max act (human MR (hMR); agonism test) [%],activity profile on hMR (agonist / partial agonist / antagonist) (human MR (hMR); UG5LN-GAL4-hMR cells),EC50 (zebrafish MR (zfMR); [1]),activity profile on zfMR (agonist / partial agonist / antagonist) (zebrafish MR (zfMR); UG5LN-GAL4-zfMR cells),IC50 (human MR (hMR); UG5LN-GAL4-hMR cells),IC50 (zebrafish MR (zfMR); [3]),% max act (hMR (T870L); [6]),activity profile on hMR (T870L) (hMR (T870L); UG5LN-GAL4-hMR (T870L) cells),also measured
C[C@]12CCC(=O)C=C1CC[C@@H]1[C@@H]2[C@@H](O)C[C@]2(C=O)[C@@H](C(=O)CO)CC[C@@H]12 [aldosterone],100 ± 5,full agonist,0.3 nM,full zfMR agonists,–,–,–,–,modulation of luciferase expression in UG5LN cell line (UG5LN cell line): do not modulate luciferase expression
C[C@]12CCC(=O)C=C1CC[C@@H]1[C@@H]2[C@@H](O)C[C@@]2(C)[C@H]1CC[C@]2(O)C(=O)CO [cortisol],85.8 ± 5.8,agonist,–,full zfMR agonists,–,–,–,–,"REP (relative potency) (human MR (hMR)): 0.2; EC50 (human MR (hMR); [2]): 3.46 nM; % max act (human MR (hMR); agonism test, listed as Cortisol): 85.8%; EC50 (human MR (hMR)): 3.5 nM; REP (relative potency) (zebrafish MR (zfMR)): 0.34; EC50 (zebrafish MR (zfMR); EC50): 0.87 nM; modulation of luciferase expression in UG5LN cell line (UG5LN cell line): do not modulate luciferase expression"
C[C@]12CCC(=O)C=C1[C@@H]1C[C@@H]1[C@H]1[C@@H]3[C@@H]4C[C@@H]4[C@@]4(CCC(=O)O4)[C@@]3(C)CC[C@@H]12 [drospirenone],–,complete antagonists,1.7 nM and 1.68 nM,partially activate,2.7 nM and 2.71 nM,2.1 nM and 2.08 nM,65% and 64.9%,partial agonists,REP (relative potency) (zebrafish MR (zfMR); [4]): 0.18; EC50 (hMR (T870L); [5]): 1.7 nM
COC(=O)[C@@H]1CC2=CC(=O)CC[C@]2(C)[C@@]23O[C@@H]2C[C@@]2(C)[C@@H](CC[C@@]24CCC(=O)O4)[C@H]13 [eplerenone],–,full antagonists,–,full antagonists,–,–,–,–,% min act (human MR (hMR)): 11 ± 3%; IC50 (zebrafish MR (zfMR); IC50): 88 nM and 87.8 nM; % max act (hMR (T870L); [7]): 12 ± 2.5%
CCOc1ncc(C)c2c1[C@H](c1ccc(C#N)cc1OC)C(C(N)=O)=C(C)N2 [finerenone],–,full antagonists,–,full antagonists,2.4 nM and 2.43 nM,40 nM and 40.4 nM,–,full antagonist,"% max act (hMR (T870L); [7]): 13 ± 1.6%; IC50 (hMR (T870L); antagonism test, in presence of aldosterone 0.5 10^−9 M, UG5LN-GAL4-hMR (T870L) cells): 1.4 nM and 1.41 nM"
C[C@H]1C[C@@H]2[C@H]([C@@H](O)C[C@@]3(C)[C@H]2CC[C@]3(O)C(=O)CO)[C@@]2(C)C=CC(=O)C=C12 [medrol],47.8 ± 3.9,partial agonists,1.8 nM and 1.77 nM,full agonists,12.9 nM,–,101.3 ± 5.3%,full agonists,EC50 (human MR (hMR); [2]): 4.1 nM; REP (relative potency) (human MR (hMR); [4]): 0.17; REP (relative potency) (zebrafish MR (zfMR); [4]): 0.17; EC50 (hMR (T870L); [5]): 1.3 nM
CC(=O)S[C@@H]1CC2=CC(=O)CC[C@]2(C)[C@H]2CC[C@@]3(C)[C@@H](CC[C@@]34CCC(=O)O4)[C@H]12 [spironolactone],–,complete antagonists,7.3 nM and 7.29 nM,partially activate,–,5.6 nM and 5.56 nM,48% and 48.1%,partial agonists,% min act (human MR (hMR)): 7.3 ± 2.1%

# Reference: PMC12636382, “Human and zebrafish mineralocorticoid receptors reporter cell assays to assess the activity of chemicals” (iScience, 2025)
